Tests used:
[1] = molecular target: T1, rat UT-A1 (Rattus norvegicus, UniProt Q62668); test: UT-A1-mediated urea flux across stably transfected MDCK cell layers; format: cell-based; conditions: 10 μM forskolin; 0.7 mM phloretin
T1 construct: expressed in transfected cells
T1 sequence (Q62668 1-929): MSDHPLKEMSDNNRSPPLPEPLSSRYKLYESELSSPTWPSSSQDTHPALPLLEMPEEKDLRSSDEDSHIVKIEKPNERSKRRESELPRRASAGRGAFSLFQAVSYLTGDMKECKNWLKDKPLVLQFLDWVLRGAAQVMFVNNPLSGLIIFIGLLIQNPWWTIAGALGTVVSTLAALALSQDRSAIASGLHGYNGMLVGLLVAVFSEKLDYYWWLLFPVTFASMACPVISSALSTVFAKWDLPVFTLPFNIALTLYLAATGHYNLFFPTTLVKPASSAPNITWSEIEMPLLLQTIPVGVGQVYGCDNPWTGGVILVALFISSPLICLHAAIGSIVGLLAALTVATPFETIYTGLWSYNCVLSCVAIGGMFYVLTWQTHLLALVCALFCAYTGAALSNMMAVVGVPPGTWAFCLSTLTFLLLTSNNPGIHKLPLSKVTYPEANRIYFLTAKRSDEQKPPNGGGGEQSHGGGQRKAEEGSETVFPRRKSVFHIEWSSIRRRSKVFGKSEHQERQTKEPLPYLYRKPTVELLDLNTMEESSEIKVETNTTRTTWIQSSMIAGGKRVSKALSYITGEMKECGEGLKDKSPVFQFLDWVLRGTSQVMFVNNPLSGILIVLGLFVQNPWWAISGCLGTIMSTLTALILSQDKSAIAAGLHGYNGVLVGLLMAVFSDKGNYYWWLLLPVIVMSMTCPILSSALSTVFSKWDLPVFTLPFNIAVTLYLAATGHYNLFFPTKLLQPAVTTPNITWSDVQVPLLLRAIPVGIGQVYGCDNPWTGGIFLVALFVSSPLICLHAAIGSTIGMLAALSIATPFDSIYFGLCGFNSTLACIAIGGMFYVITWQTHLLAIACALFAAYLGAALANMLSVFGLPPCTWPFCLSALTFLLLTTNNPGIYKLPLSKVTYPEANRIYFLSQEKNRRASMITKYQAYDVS
Description: Concentration-inhibition studies were performed to study the effect of the active mouse UT-B inhibitors on urea transport by UT-A. The amino acid sequences of UT-B and UT-A urea transporter isoforms share significant similarity. The cells used in these studies were MDCK cells that expressed rat UT-A1. MDCK-UT-A1-expressing cells were grown on collagen-coated porous filters until they were electrically tight, at which point 15 mM urea was introduced into buffer bathing the basolateral cell surface. […]
UT-A1-facilitated urea flux in the basolateral-to-apical direction across unstimulated and forskolin-stimulated MDCK-UT-A1 cell layers was measured in response to a 15-mM urea gradient. […] Five μL samples of apical fluid were collected at specified times during incubation at 37° C., and urea concentration was determined using a commercial kit based on chromogenic urea complexation at 520-nm wavelength (Quantichrom™ Urea Assay Kit, BioAssay Systems, Hayward, Calif.). […] Aforsk, and Aphlor were averaged absorbance values (at 520 nm) for cultures treated with forskolin and forskolin+phloretin, respectively, and Atest were values from cultures treated with forskolin+ test compound.

[2] = test system: RBCs from wild-type mice; test: Osmotic water permeability by stopped-flow light scattering, RBCs from wild-type mice; format: cell-based, mouse
Description: (§1) RBC urea and water permeabilities were assayed by stopped-flow light scattering using a Hi-Tech Sf-51 instrument (Wiltshire, UK). For measurement of urea permeability, dilutions of whole blood (human or mouse; see Example 1) in PBS (hematocrit: approximately 0.5%) were incubated with test compounds for 5 min and then subjected to a 250-mM inwardly directed gradient of urea. After an initial osmotic shrinking phase, the kinetics of increasing cell volume caused by urea influx were measured as the time-course of 90° scattered light intensity at 530 nm, with increasing cell volume resulting in reduced scattered light intensity. As a positive control, 0.7 mM phloretin was added to the RBC suspension prior to stopped-flow experiments. Measurements of water permeability were carried out similarly, with sucrose (cell-impermeant) used instead of urea to establish a 250-mM osmotic gradient. As a positive control, HgCl2 (0.3 mM) was added to the RBC suspension prior to stopped-flow measurements. Osmotic water permeability coefficients (Pf) were computed from light scattering data as described (van Hoek et al., J. Biol. Chem. 267:18267-69 (1992)).
This example describes chemical knock-out of UT-B by UT-B inhibitors in RBCs and the effect on UT-B-facilitated water transport. […] Osmotic water permeability was measured by stopped-flow light scattering in RBCs from wild-type and AQP1-null mice as shown in FIG. 8A. […] AQP1-null RBCs had greater than 5-fold reduced Pf compared to wild-type RBCs.

[3] = molecular target: T2, UT-B (Homo sapiens, UniProt Q13336); test: RBC lysis assay, human RBCs loaded with acetamide; format: cell-based
T2 construct: the indicator cells are red blood cells that endogenously express the UT-B urea transporter; endogenous in cells; host or cells: human red blood cells (whole venous blood, single donor)
T2 sequence (Q13336 1-389): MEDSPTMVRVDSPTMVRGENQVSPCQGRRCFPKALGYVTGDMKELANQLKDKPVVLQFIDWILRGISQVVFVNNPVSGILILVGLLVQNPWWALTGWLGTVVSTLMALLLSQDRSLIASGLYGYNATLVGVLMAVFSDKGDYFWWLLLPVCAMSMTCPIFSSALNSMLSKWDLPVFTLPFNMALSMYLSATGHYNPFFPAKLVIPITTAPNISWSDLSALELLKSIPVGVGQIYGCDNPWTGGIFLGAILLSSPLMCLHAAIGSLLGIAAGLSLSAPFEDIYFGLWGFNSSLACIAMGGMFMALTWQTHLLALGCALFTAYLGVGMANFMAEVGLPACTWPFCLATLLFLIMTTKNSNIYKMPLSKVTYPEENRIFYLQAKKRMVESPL

[4] = test system: urea transporter (UT); conditions: previously available UT inhibitors; cited from earlier work
[5] = molecular target: T2, UT-B; test: Stopped-flow light scattering, urea permeability of human RBCs; format: cell-based
Description: as §1, with “For measurement of urea permeability, dilutions of whole blood (human or mouse; see Example 1) in PBS (hematocrit: approximately 0.5%) were incubated with test compounds for 5 min and then subjected to a 250-mM inwardly directed gradient of urea.” left out
After repeating the 96-well plate RBC lysis assay to confirm compound activity (see Example 2), bona fide urea transport inhibition was determined by stopped-flow light scattering from the kinetics of urea influx (RBC swelling) in response to an inwardly directed urea gradient. Rapid mixing of an RBC suspension with a hyperosmolar solution containing excess 250 mM urea produced rapid cell shrinking due to osmotic water efflux, followed by cell swelling as urea (and water) influx occurred.
To determine EC50 values for urea transport inhibition directly, RBC urea transport was measured by stopped-flow light scattering using a non-saturating concentration of extracellular urea (to avoid possible competition effects). EC50 for inhibition of RBC urea transport was determined independently by comparing stopped-flow light scattering curves to a model of cell shrinking-swelling.
For stopped-flow experiments, a 100-mM gradient of urea (for human RBCs) or N-methylurea (for mouse RBCs) was used to minimize competition effects (apparent urea and N-methylurea affinities at 23° C. are approximately 200 and approximately 100 mM, respectively) (Mayrand et al., J. Gen. Physiol. 81:221-37 (1983)). N-methylurea, with greater than 2-fold slower RBC permeability than urea, was used in mouse studies to better resolve overlapping water and urea transport kinetics. Dose-response data were also collected for human RBCs using a high concentration of 1 M urea to distinguish between competitive vs. non-competitive inhibitor binding.
The two coupled differential equations describing water efflux and solute influx in response to externally added urea or methylurea were numerically integrated using the forward Euler method (Δt=0.01 s) to reproduce the biphasic changes in cell volume observed experimentally. Computations that were performed using the smaller time step (Δt=0.001 s) gave similar results, confirming the adequacy of the 0.01 s time step. Water flux, Jv (in cm^3/s), across erythrocyte membranes is represented by the following equation: Jv=−Pf·S·vw·[(Ie−Ic(i))+(Ue−Uc(i))]; solute flux, Js (in mol/s), is represented by the following equation: Ps·S·(Ue−Uc(i). Permeability coefficients (Pf and Ps) are expressed in units of cm/s, cell surface area (S) in cm^2, extracellular (e) and cellular (c) concentrations of impermeant (I) and urea/methylurea (U) solute in mol/cm^3, and vw is […]. Initial conditions were Ie=Ic(0)=2.9×10^−4 mol/cm^3, Ue=10^−4 mol/cm^3, and Uc(0)=0. For each time step, a new cell volume (normalized to the initial size; V(i+1)/V(0)) and a new cell permeant concentration (U(i+1)) were calculated from V(i+1)/V(0)=V(i)/V(0)−Δt·Pf·(S/V(0))·vw·[Ie(1−V(i)/V(0))+(Ue−Uc(i))] and Uc(i+1)=Uc(i)/V(0)−Δt·Us·(S/V(0))·vw·(Ue−Uc(i)). Normalized cell volume was assumed to be inversely proportional to scattered light intensity. The product of Pf and the surface area-to-volume ratio (S/V(0)) was determined to be 3.4×10^2 s^−1 and 8.5×10^2 s^−1 for human and mouse erythrocytes, respectively, from water permeability measurements. […]

[6] = molecular target: T3, UT-B-facilitated water transport (Mus musculus, UniProt Q8VHL0); test: Osmotic water permeability by stopped-flow light scattering, RBCs from AQP1-null mice; format: cell-based
T3 construct: endogenous in cells; host or cells: mouse red blood cells (AQP1-null and wild-type mice, CD1 background)
T3 sequence (Q8VHL0 1-384): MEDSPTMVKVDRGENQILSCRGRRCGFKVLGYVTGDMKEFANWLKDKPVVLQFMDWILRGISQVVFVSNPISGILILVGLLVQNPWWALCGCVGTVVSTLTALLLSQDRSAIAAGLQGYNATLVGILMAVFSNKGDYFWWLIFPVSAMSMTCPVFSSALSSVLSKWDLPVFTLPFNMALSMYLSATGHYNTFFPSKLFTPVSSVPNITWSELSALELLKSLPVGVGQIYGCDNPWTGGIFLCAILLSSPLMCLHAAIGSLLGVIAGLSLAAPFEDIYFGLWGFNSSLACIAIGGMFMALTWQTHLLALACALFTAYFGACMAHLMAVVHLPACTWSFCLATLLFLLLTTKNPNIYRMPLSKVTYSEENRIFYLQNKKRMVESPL
Description: as §1, with “Osmotic water permeability coefficients (Pf) were computed from light scattering data as described (van Hoek et al., J. Biol. Chem. 267:18267-69 (1992)).” left out
This example describes chemical knock-out of UT-B by UT-B inhibitors in RBCs and the effect on UT-B-facilitated water transport. […] Osmotic water permeability was measured by stopped-flow light scattering in RBCs from wild-type and AQP1-null mice as shown in FIG. 8A. […]

| Structure (SMILES) | effect on UT-A1-facilitated urea transport [1] | effect on water transport [2] | change in Pf ([2]; 0.7 mM) | acetamide concentration at fifty percent lysis ([3]; 0.7 mM phloretin, control approximately 1.6 M) | concentration exhibiting activity as UT inhibitor [4] [mM] | EC50 ([3]; Table 5, phthalazinamines, UT-B inhibitory potency) [µM] | inhibition of urea transport, inhibitor added only to urea-containing solution (sidedness) ([5]; 0.1 μM ureainh-101, 0.2 μM ureainh-302, external exposure at time of mixing) | inhibition at 0.4 µM ([5]; 0.1 μM ureainh-101, 0.4 μM ureainh-302, read-out: transport inhibition after 10 min pre-incubation) [%] | reversibility of inhibition after washing RBCs ([5]; 10 min pre-incubation, then wash) | effect on water permeability [6] |
| --- | --- | --- | --- | --- | --- | --- | --- | --- | --- | --- |
| O=C(CCc1ccc(O)cc1)c1c(O)cc(O)cc1O [phloretin, reference compound] | inhibited | little effect | small but significant reduction | approximately 1.1 M | > 0.5 | – | – | – | – | – |
| Cc1ccc(Nc2nnc(-c3ccc(C(N)=O)cc3)c3ccccc23)cc1 [ureainh-302, 4-(4-(p-tolylamino)phthalazin-1-yl)benzamide] | – | little effect | – | – | – | 0.2 | sizable effect | > 95 | fully reversible inhibition | further inhibited |

Reference: patent publication US9316633B2, “Methods for identifying inhibitors of solute transporters” (The Regents of the University of California, priority 2006, dated 2016)
